Reference: patent publication US20230365625A1, “METHODS FOR TREATING AND/OR PREVENTING UNDESIRABLE SEQULAE OF NASAL TURBINOPLASTY OR FUNCTIONAL ENDOSCOPIC SINUS SURGERY” (3-D Matrix, Ltd., priority 2022, published 2023)
Values joined by “and” are separate entries in the source; they are usually repeats but may differ in a detail not shown here. Equal values may be shown once. “Also recorded” adds a separate entry of the source.

Columns and labels:
[1] = test system: nasal mucosal injuries on the middle turbinate and opposing nasal septum; assay: Intra-operative time to hemostasis, sheep endoscopic nasal surgery model; format: in vivo, Merino sheep
Experimental: Surgical Methods—On the day prior to surgery, the animals were weighed, and each nostril was randomly assigned by computer randomization to receive PuraSinus, FLOSEAL or no treatment to each nostril after the surgical turbinoplasty. Each animal had food withheld for 24 hours and water withheld for 8 to 12 hours prior to the day of surgery as per the standard anesthetic procedure. The animals were sedated with a weight adjusted dose of intravenous diazepam. Following sedation, a percutaneous jugular catheter was inserted and secured, with induction achieved by further weight adjusted doses of intravenous diazepam and ketamine. The animals were placed in sternal recumbency for insertion of a size-appropriate endotracheal tube. Anesthesia was maintained through inhaled 1-2% isofluorane with parenteral propofol and ketamine given when necessary. Each animal was then given a prophylactic dose of long-acting antibiotic, weight adjusted oxytetracycline to cover for postoperative infections. The nasal cavity was prepared by packing with surgical pledgets soaked in 1% lignocaine and phenylephrine mixture. The middle turbinate was infiltrated with the same lignocaine/phenylephrine mixture via a small gauge needle in numerous sites over the middle turbinate. The use of vasoconstrictors and decongestants such as lignocaine and phenylephrine both topically and injected locally is standard pre-operatively in patients undergoing turbinoplasty (Ahmed S. et al., J. Coll. Physicians Surg. Pak. 26(6): 531-2 (2016)) The animals' vital signs were monitored throughout the procedure.
Prior to making incisions, all sheep were first examined under endoscope to screen for any nasal septum deviations. Only animals that had straight septum and uniform space between septum and middle turbinate were used. […]
Intraoperative observations—The degree of bleeding/hemostasis was assessed by an independent observer who was blinded to the appearance of FLOSEAL and PuraSinus (SEQ ID NO:1), and to the background of these two hemostatic agents. […]

[2] = pH of the supplied solution; format: physicochemical; conditions: 2.5% weight/volume solution in water
Text: Details of the Sheep Study—Endoscopic nasal surgery targeting the turbinates and sinuses has become a cornerstone in managing chronic rhinosinusitis. A sheep model was chosen to test treatment of an endoscopic surgical wound deep in the sinuses with PuraSinus (RADA16-I; (SEQ ID NO:1) 2.5% in water) compared to controls as a model for […] in humans both due to the size of the animals and the suitability of the sheep model for comparison with this kind of surgery in humans as described below. PuraSinus (ARTG: 267486; (SEQ ID NO:1)) was supplied by 3-D Matrix Europe SAS as a 2.5% weight/volume solution of synthetic SAPs in water having a pH of about 2.3. Upon contact with physiologic tissue and/or liquid like blood, the pH and/or ionic strength of PuraSinus (SEQ ID NO:1) increases, triggering the self-assembly of the peptides into nanofibers, forming a beta-sheet network similar to an extracellular matrix. At a macroscopic level, the viscous solution forms a hydrogel that seals the opened vessels resulting in hemostasis. PuraSinus (SEQ ID NO:1) is biocompatible and free from infectious agents and is resorbed over time although some residue may remain for ≥30 days. It is supplied sterile in a syringe and delivered through a nozzle supplied by the manufacturer. It is stored at 2-8° C. […]

[3] = 1% in water; cited from earlier work
[4] = RADA16 2.5%, IEIK13 1.3%, QLEL12 0.15% in water; result in words; cited from earlier work
[5] = test system: gastrointestinal endoscopic procedures and cardiovascular surgery; conditions: 2.5% w/v in water, topical hemostat; cited from earlier work

Compound: CC(=O)N[C@@H](CCCNC(=N)N)C(=O)N[C@@H](C)C(=O)N[C@@H](CC(=O)O)C(=O)N[C@@H](C)C(=O)N[C@@H](CCCNC(=N)N)C(=O)N[C@@H](C)C(=O)N[C@@H](CC(=O)O)C(=O)N[C@@H](C)C(=O)N[C@@H](CCCNC(=N)N)C(=O)N[C@@H](C)C(=O)N[C@@H](CC(=O)O)C(=O)N[C@@H](C)C(=O)N[C@@H](CCCNC(=N)N)C(=O)N[C@@H](C)C(=O)N[C@@H](CC(=O)O)C(=O)N[C@@H](C)C(N)=O [PuraSinus, Ac-RADARADARADARADA-NH2]
- Time to hemostasis ([1]; individual surgical site (sheep number, nostril), listed as P): 120 sec and 102 sec and 125 sec and 130 sec (3×) and 140 sec and 150 sec (2×) and 70 sec and 220 sec and 85 sec and 180 sec and 190 sec and 210 sec and 95 sec and 290 sec and 58 sec and 131 sec and 87 sec
- Intra-operative hemostasis time ([1]; sheep, mean±SD, 20 sites per group): 139.7 ± 56.2 s
- Hemostasis compared to untreated control ([1]; sheep, result in words): statistically significant reduction in time to hemostasis; also recorded: improved hemostasis
- pH [2]: about 2.3
- Increase in storage modulus G′ after DMEM treatment relative to before [3]: 43.5 fold
- Effect of gamma-irradiation sterilization [4]: enhanced the rheological properties
- Successful hemostasis rates [5]: 72.6-100%
